PMC7031696 (Cell chemical biology, 2019)
≈ marks a conversion by molar mass, not a printed value. Entries after “also recorded” stand apart in the source; their conditions may differ. Read-outs that look alike come from different tables or passages of the source.

Legend:
[1] = system: Plasmodium falciparum 3D7-A10 parasites; assay: Stage specificity assay (8-h exposure of synchronized stages, IC50^8h); format: cell-based; conditions: for IC50: Plasmodium falciparum
[2] = system: asynchronous 3D7-A10 parasite cultures; assay: Standard 72-h exposure asexual blood stage susceptibility assay (IC50^72h); format: cell-based, Plasmodium falciparum; conditions: Plasmodium falciparum, 3D7, 72 h, read-out: Overall (72hr assay) Mean IC50 (IC50^72h)
[3] = system: 3D7-MR4 trophozoite parasite-infected RBCs; assay: Metabolomic profiling (hydrophilic metabolite changes, UHPLC-MS); format: cell-based, Plasmodium falciparum
[4] = 1.5 h, 500 μM, pH 7.4
physchem = conditions: pH 7.4, aqueous buffer, kinetic from dmso stock
[5] = 10 × IC50^72h, 2.5 hr, trophozoites

Compound: Clc1ccc2c(N3CCN(CCCN4CCN(c5ccnc6cc(Cl)ccc56)CC4)CC3)ccnc2c1 [Piperaquine, reference compound]
- Ratio lowest IC50 8hr/IC50 72hr ([1]; 3D7-A10): 1.7
- overall activity profile (stages on which active) ([1]; 8-h exposures): activity on all stages
- IC50 ([1]; 3D7, read-out: Early rings Mean IC50 (IC50^8h), 8-h exposure 0–8 hr, 3D7-A10, survival at 60 h): 0.0262 µM
- IC50 ([1]; 3D7, read-out: Early trophozoites Mean IC50 (IC50^8h), 8-h exposure 16–24 hr, 3D7-A10, survival at 60 h): 0.0274 µM
- IC50 ([1]; 3D7, read-out: Late rings Mean IC50 (IC50^8h), 8-h exposure 8–16 hr, 3D7-A10, survival at 60 h): 0.0463 µM
- IC50 ([1]; 3D7, read-out: Late trophozoites Mean IC50 (IC50^8h), 8-h exposure 24–32 hr, 3D7-A10, survival at 60 h): 0.0329 µM
- IC50 ([1]; 3D7, read-out: Schizonts Mean IC50 (IC50^8h), 8-h exposure 32–40 hr, 3D7-A10, survival at 60 h): 0.067 µM
- IC50^8h relative to IC50^72h value ([1]; most susceptible stages): ≤ 2 fold
- Stage of peak activity (Figure 6) ([1]; period when the parasite was most susceptible (lowest IC50^8h)): ring and trophozoite stages; also recorded: rings and trophozoites
- IC50 [2]: 0.0154 µM
- changes within the set of metabolites detected (low fold change group) [3, 5]: did not induce major changes
- decreased levels of dCDP, dTMP, guanosine, and guanine [3, 5]: ≥ 2 fold
- Log2(fold changes) 3-phosphoglycerate ([3]; metabolite 3-phosphoglycerate, log2 fold change): 0.1576
- Log2(fold changes) 4-Pyridoxic acid ([3]; metabolite 4-Pyridoxic acid, log2 fold change): 0.0000
- Log2(fold changes) 4-aminobutyrate ([3]; metabolite 4-aminobutyrate, log2 fold change): -0.0347
- Log2(fold changes) 4-phosphopantetheine ([3]; metabolite 4-phosphopantetheine, log2 fold change): 0.0000
- Log2(fold changes) 4-phosphopantothenate ([3]; metabolite 4-phosphopantothenate, log2 fold change): -0.1578
- Log2(fold changes) 5-aminopentanoic acid ([3]; metabolite 5-aminopentanoic acid, log2 fold change): 0.0000
- Log2(fold changes) 5-methyl-THF ([3]; metabolite 5-methyl-THF, log2 fold change): 0.0000
- Log2(fold changes) 5-phosphoribosyl-1-pyrophosphate ([3]; metabolite 5-phosphoribosyl-1-pyrophosphate, log2 fold change): 0.2840
- Log2(fold changes) 6-phospho-D-gluconate ([3]; metabolite 6-phospho-D-gluconate, log2 fold change): 0.0537
- Log2(fold change) HVDD ([3]; metabolite HVDD): 0.0000
- Log2(fold change) Hydroxyisocaproic acid ([3]; metabolite Hydroxyisocaproic acid): 0.0000
- Log2(fold change) IDP ([3]; metabolite IDP): -0.0045
- Log2(fold change) IMP ([3]; metabolite IMP): -0.1159
- Log2(fold change) Inositol ([3]; metabolite Inositol): 0.0000
- Log2(fold change) Isopentyl-PP ([3]; metabolite Isopentyl-PP): 0.0000
- Log2(fold change) L-arginino-succinate ([3]; metabolite L-arginino-succinate): 0.0000
- Log2(fold change) LD ([3]; metabolite LD): 0.0483
- Log2(fold change) Myristoyl/tetradecanoyl-CoA ([3]; metabolite Myristoyl/tetradecanoyl-CoA): 0.0000
- Log2(fold change) N-Acetyl-L-alanine ([3]; metabolite N-Acetyl-L-alanine): -0.2552
- Log2(fold change) N-acetyl-L-ornithine ([3]; metabolite N-acetyl-L-ornithine): -0.0188
- Log2(fold change) N-acetyl-glucosamine-1/6-phosphate ([3]; metabolite N-acetyl-glucosamine-1/6-phosphate): -0.1206
- Log2(fold change) N-acetyl-glutamate ([3]; metabolite N-acetyl-glutamate): -0.0276
- Log2(fold change) N-acetyl-glutamine ([3]; metabolite N-acetyl-glutamine): 0.0000
- Log2(fold change) N-carbamoyl-L-aspartate ([3]; metabolite N-carbamoyl-L-aspartate): -0.1894
- Log2(fold change) NAD+ ([3]; metabolite NAD+): -0.0736
- Log2(fold change) NADH ([3]; metabolite NADH): 0.1619
- Log2(fold change) NADP+ ([3]; metabolite NADP+): 0.0160
- Log2(fold change) NADPH ([3]; metabolite NADPH): 0.1653
- Log2(fold change) O-acetyl-L-serine ([3]; metabolite O-acetyl-L-serine): 0.0000
- Log2(fold change) Octoluse 8/1P ([3]; metabolite Octoluse 8/1P): -0.0774
- Log2(fold change) Octoluse Bisphosphate ([3]; metabolite Octoluse Bisphosphate): 0.0393
- Log2(fold change) PD ([3]; metabolite PD): -0.0500
- Log2(fold change) PE ([3]; metabolite PE): 0.0291
- Log2(fold change) PEE ([3]; metabolite PEE): 0.1599
- Log2(fold change) PEEK ([3]; metabolite PEEK): 0.3927
- Log2(fold change) PVNF ([3]; metabolite PVNF): 0.0618
- Log2(fold change) Pyroglutamic acid ([3]; metabolite Pyroglutamic acid): -0.2255
- Log2(fold change) Pyrophosphate ([3]; metabolite Pyrophosphate): 0.0000
- Log2(fold change) Ribose-5-phosphate ([3]; metabolite Ribose-5-phosphate): -0.0505
- Log2(fold change) S-adenosyl-L-homocysteine ([3]; metabolite S-adenosyl-L-homocysteine): -0.1747
- Log2(fold change) S-adenosyl-L-methioninamine ([3]; metabolite S-adenosyl-L-methioninamine): 0.0000
- Log2(fold change) S-adenosyl-L-methionine ([3]; metabolite S-adenosyl-L-methionine): 0.0000
- Log2(fold change) S-methyl-5'-thioadenosine ([3]; metabolite S-methyl-5'-thioadenosine): -5.54e-5
- Log2(fold change) SD ([3]; metabolite SD): 0.0815
- Log2(fold change) SDL ([3]; metabolite SDL): 0.0000
- Log2(fold change) SID ([3]; metabolite SID): 0.0000
- Log2(fold change) Sedoheptulose bisphosphate ([3]; metabolite Sedoheptulose bisphosphate): 0.2230
- Log2(fold change) Thiamine pyrophosphate ([3]; metabolite Thiamine pyrophosphate): -0.1023
- Log2(fold changes) UDP-D-glucose ([3]; metabolite UDP-D-glucose, log2 fold change): -0.0097
- Log2(fold changes) UDP-D-glucuronate ([3]; metabolite UDP-D-glucuronate, log2 fold change): 0.0081
- Log2(fold changes) UDP-N-acetyl-glucosamine ([3]; metabolite UDP-N-acetyl-glucosamine, log2 fold change): -0.0956
- Log2(fold changes) UDP ([3]; metabolite UDP, log2 fold change): -0.8655
- Log2(fold changes) UMP ([3]; metabolite UMP, log2 fold change): -0.2304
- Log2(fold changes) UTP ([3]; metabolite UTP, log2 fold change): 0.0058
- Log2(fold change) hydroxyphenylpyruvate ([3]; metabolite hydroxyphenylpyruvate): 0.0000
- Log2(fold change) hydroxyproline/Aminolevulinate ([3]; metabolite hydroxyproline/Aminolevulinate): 0.0000
- Log2(fold change) hypoxanthine ([3]; metabolite hypoxanthine): 0.0000
- Log2(fold change) indole ([3]; metabolite indole): 0.0000
- Log2(fold change) inosine ([3]; metabolite inosine): -0.3997
- Log2(fold change) isoleucine ([3]; metabolite isoleucine): 0.1103
- Log2(fold change) lactate ([3]; metabolite lactate): -0.4255
- Log2(fold change) leucine ([3]; metabolite leucine): -0.0845
- Log2(fold change) lysine ([3]; metabolite lysine): 0.0614
- Log2(fold change) malate ([3]; metabolite malate): -0.0964
- Log2(fold change) maleic acid ([3]; metabolite maleic acid): -0.0992
- Log2(fold change) methionine ([3]; metabolite methionine): 0.1002
- Log2(fold change) myo-inositol ([3]; metabolite myo-inositol): -0.6606
- Log2(fold change) nicotinamide mononucleotide ([3]; metabolite nicotinamide mononucleotide): -0.1524
- Log2(fold change) nicotinate ([3]; metabolite nicotinate): -0.4222
- Log2(fold change) ornithine ([3]; metabolite ornithine): 0.0000
- Log2(fold change) orotate ([3]; metabolite orotate): -0.5698
- Log2(fold change) orotidine-5'-phosphate ([3]; metabolite orotidine-5'-phosphate): -0.6109
- Log2(fold change) oxaloacetate ([3]; metabolite oxaloacetate): 0.0000
- Log2(fold change) p-aminobenzoate ([3]; metabolite p-aminobenzoate): 0.0000
- Log2(fold change) p-hydroxybenzoate ([3]; metabolite p-hydroxybenzoate): 0.0000
- Log2(fold change) pantothenate ([3]; metabolite pantothenate): -0.1253
- Log2(fold change) phenylalanine ([3]; metabolite phenylalanine): -0.1188
- Log2(fold change) phenylpyruvate ([3]; metabolite phenylpyruvate): 0.0000
- Log2(fold change) phosphoenolpyruvate ([3]; metabolite phosphoenolpyruvate): 0.1409
- Log2(fold change) prephenate ([3]; metabolite prephenate): 0.0000
- Log2(fold change) proline ([3]; metabolite proline): -0.1490
- Log2(fold change) pyridoxine ([3]; metabolite pyridoxine): -0.1465
- Log2(fold change) pyruvate ([3]; metabolite pyruvate): -0.2297
- Log2(fold change) riboflavin ([3]; metabolite riboflavin): 0.0675
- Log2(fold change) ribose ([3]; metabolite ribose): 0.0000
- Log2(fold change) ribose-phosphate ([3]; metabolite ribose-phosphate): -0.1362
- Log2(fold change) ribulose-5-phosphate ([3]; metabolite ribulose-5-phosphate): -0.0392
- Log2(fold change) serine ([3]; metabolite serine): 0.0266
- Log2(fold change) sn-glycerol-3-phosphate ([3]; metabolite sn-glycerol-3-phosphate): 0.0600
- Log2(fold change) succinate/Methylmalonic acid ([3]; metabolite succinate/Methylmalonic acid): 0.0813
- Log2(fold change) succinyl-CoA/methylmalonyl-CoA ([3]; metabolite succinyl-CoA/methylmalonyl-CoA): 0.0000
- Log2(fold change) taurine ([3]; metabolite taurine): 0.4424
- Log2(fold change) thiamine ([3]; metabolite thiamine): -0.0999
- Log2(fold change) threonine/homoserine ([3]; metabolite threonine/homoserine): -0.0376
- Log2(fold change) thymidine ([3]; metabolite thymidine): 0.0000
- Log2(fold changes) thymine ([3]; metabolite thymine, log2 fold change): 0.0000
- Log2(fold changes) trehalose-6-Phosphate ([3]; metabolite trehalose-6-Phosphate, log2 fold change): 0.0000
- Log2(fold changes) tryptophan ([3]; metabolite tryptophan, log2 fold change): -0.0757
- Log2(fold changes) tyrosine ([3]; metabolite tyrosine, log2 fold change): 0.0866
- Log2(fold changes) uridine ([3]; metabolite uridine, log2 fold change): -0.4854
- Ratio fil./std. (absorbance filtrate/standard) [4]: 0.69
- solubility at 1.5 h (physchem): 100 to 500 µM (≈ 53.6 to 268 µg/mL)
